Results from PubChem BioAssay AID1963833 (Molecular Pharmacology Branch, DTP, NCI, 2024).

Tested on: 883617-216-R-J1-PDC complex spheroid viability
Assay: Anticancer human tumor 883617-216-R-J1-PDC patient-derived bladder carcinoma cell line growth inhibition [POLQ]
Conditions: for IC50: curve of first compound; for viability, T/C: stronger effect = lower value; active = viability on the fitted dose curve at most 10% of control; inactive = the rest
Method in brief: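 Patient-derived tumour cells were co-cultured with HUVEC and mesenchymal stem cells as multicellular spheroids at 37 °C. They were treated with POLQ inhibitors (novobiocin, ART-558, RP6685) alone or combined with other agents. Top concentrations were at or near clinical Cmax (otherwise 10 microM; SN-38 at 1 microM), decreasing in half-log steps.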

[1] = second compound 0.0316 µM, first compound 0.0316 µM
[2] = second compound 0.0316 µM, first compound 0.1 µM
[3] = second compound 0.0316 µM, first compound 0.316 µM
[4] = second compound 0.0316 µM, first compound 1 µM
[5] = second compound 0.0316 µM, first compound 3.16 µM
[6] = second compound 0.0316 µM, first compound 10 µM
[7] = second compound 0.1 µM, first compound 0.0316 µM
[8] = second compound 0.1 µM, first compound 0.1 µM
[9] = second compound 0.1 µM, first compound 0.316 µM
[10] = second compound 0.1 µM, first compound 1 µM
[11] = second compound 0.1 µM, first compound 3.16 µM
[12] = second compound 0.1 µM, first compound 10 µM
[13] = second compound 0.316 µM, first compound 0.0316 µM
[14] = second compound 0.316 µM, first compound 0.1 µM
[15] = second compound 0.316 µM, first compound 0.316 µM
[16] = second compound 0.316 µM, first compound 1 µM
[17] = second compound 0.316 µM, first compound 3.16 µM
[18] = second compound 0.316 µM, first compound 10 µM
[19] = second compound 1 µM, first compound 0.0316 µM
[20] = second compound 1 µM, first compound 0.1 µM
[21] = second compound 1 µM, first compound 0.316 µM
[22] = second compound 1 µM, first compound 1 µM
[23] = second compound 1 µM, first compound 3.16 µM
[24] = second compound 1 µM, first compound 10 µM
[25] = second compound 3.16 µM, first compound 0.0316 µM
[26] = second compound 3.16 µM, first compound 0.1 µM
[27] = second compound 3.16 µM, first compound 0.316 µM
[28] = second compound 3.16 µM, first compound 1 µM
[29] = second compound 3.16 µM, first compound 3.16 µM
[30] = second compound 3.16 µM, first compound 10 µM
[31] = second compound 10 µM, first compound 0.0316 µM
[32] = second compound 10 µM, first compound 0.1 µM
[33] = second compound 10 µM, first compound 0.316 µM
[34] = second compound 10 µM, first compound 1 µM
[35] = second compound 10 µM, first compound 3.16 µM
[36] = second compound 10 µM, first compound 10 µM
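Note: spheroids exposed to compounds for seven days before readout.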
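Throughout, for viability, T/C: 100% = DMSO vehicle control viability.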

CC1COCCN1c1cc(-c2ccnn2C)c2ccnc(-c3ccn[nH]3)c2n1 (centres undefined) + Cc1cccc(N(C)C(=O)C2C(O)CCN2c2nc(C)cc(C(F)(F)F)c2C#N)c1
334 nM: IC50 (second compound 10 µM)
204 nM: IC50 (second compound 3.16 µM)
257 nM: IC50 (second compound 1 µM)
291 nM: IC50 (second compound 0.1 µM)
273 nM: IC50 (second compound 0.316 µM)
inactive: viability, T/C [1] 89.1% | viability, T/C [2] 61.4% | viability, T/C [3] 43.2% | viability, T/C [4] 34% | viability, T/C [5] 31.7% | viability, T/C [6] 29.4% | viability, T/C [7] 72.7% | viability, T/C [8] 59.1% | viability, T/C [9] 53.2% | viability, T/C [10] 35.7% | viability, T/C [11] 29.9% | viability, T/C [12] 34.7% | viability, T/C [13] 83.6% | viability, T/C [14] 63.1% | viability, T/C [15] 48% | viability, T/C [16] 39.3% | viability, T/C [17] 32.9% | viability, T/C [18] 30.9% | viability, T/C [19] 83.2% | viability, T/C [20] 66.1% | viability, T/C [21] 48.1% | viability, T/C [22] 32.1% | viability, T/C [23] 32.6% | viability, T/C [24] 30.3% | viability, T/C [25] 72% | viability, T/C [26] 60.6% | viability, T/C [27] 43.9% | viability, T/C [28] 32.9% | viability, T/C [29] 33% | viability, T/C [30] 30.7% | viability, T/C [31] 96.7% | viability, T/C [32] 60% | viability, T/C [33] 58.1% | viability, T/C [34] 37.9% | viability, T/C [35] 38.9% | viability, T/C [36] 28.2%
205 nM: IC50 (second compound 0.0316 µM)

CCCS(=O)(=O)Nc1ccc(F)c(C(=O)c2c[nH]c3ncc(-c4ccc(Cl)cc4)cc23)c1F + Cc1cccc(N(C)C(=O)C2C(O)CCN2c2nc(C)cc(C(F)(F)F)c2C#N)c1
> 10000 nM: IC50 (second compound 0.0316 µM) | IC50 (second compound 0.1 µM) | IC50 (second compound 0.316 µM) | IC50 (second compound 1 µM) | IC50 (second compound 3.16 µM) | IC50 (second compound 10 µM)
inactive: viability, T/C [1] 89.5% | viability, T/C [2] 93.6% | viability, T/C [3] 99.3% | viability, T/C [4] 104% | viability, T/C [5] 83.7% | viability, T/C [6] 56.8% | viability, T/C [7] 105% | viability, T/C [8] 94.3% | viability, T/C [9] 97.2% | viability, T/C [10] 90.4% | viability, T/C [11] 93.9% | viability, T/C [12] 55.5% | viability, T/C [13] 86.9% | viability, T/C [14] 114% | viability, T/C [15] 98.4% | viability, T/C [16] 87.2% | viability, T/C [17] 80.6% | viability, T/C [18] 64.3% | viability, T/C [19] 97.4% | viability, T/C [20] 91.4% | viability, T/C [21] 92.7% | viability, T/C [22] 93.8% | viability, T/C [23] 92.9% | viability, T/C [24] 51.7% | viability, T/C [25] 116% | viability, T/C [26] 97.3% | viability, T/C [27] 106% | viability, T/C [28] 108% | viability, T/C [29] 89.2% | viability, T/C [30] 55.7% | viability, T/C [31] 98.2% | viability, T/C [32] 97.2% | viability, T/C [33] 104% | viability, T/C [34] 102% | viability, T/C [35] 100% | viability, T/C [36] 61.3%
